Assay results taken from patent publication US10052392B2, “Low molecular weight polyethylene glycol drug conjugates having improved drug biological activity” (JENKEM TECHNOLOGY CO., LTD. (TIANJIN), priority 2013, dated 2018).
Where two headings read alike, the source gives them in different places. One block for each molecule: values may come before it.

Experiments:
Caco-2 cell monolayer [1] = assay: Caco-2 cell monolayer transmembrane transport (unidirectional and bidirectional); details: for Papp (*10^−6)A→B: Caco-2, A→B; for Papp (*10^−6)A→B / Papp (*10^−6)B→A: 90 min incubation; for Papp (*10^−6)B→A: Caco-2, B→A; for Papp (B→A)/Papp (A→B): Caco-2 efflux ratio, >2 suggests efflux transporter
Experimental: (§2) Wherein dQ is an accumulated penetration amount of a drug receiving pond with a measure unit pmol; dt is incubation time with a measure unit min; A is a diffusion area with a measure unit cm^2; C0 is an initial administration concentration of an administrating pond with a measure unit μmol. L^−1; Papp has a measure unit cm/s.
(§3) An evaluation objective of the bidirectional transport is to preliminary observe that the transmembrane transport of the object to be tested has active transport procedure mediated by an efflux transporter.

PC-3 = assay: Inhibition of cell proliferation, CTG method, 72 hours; format: cell-based; details: PC-3 cells
Experimental: (§1) Cells are cultured under a complete culture medium; when cells are attached to the wall, drug of different concentrations is added in each tumor cell line for treatment, and a positive control, a blank control and a solvent control are set. Cells are incubated for 72 hours and then CTG method is used for detection.

K562 = assay: as above; format: cell-based; details: K562 cells
Experimental: as §1

KU812 = assay: as above; format: cell-based; details: KU812 cells
Experimental: as §1

SUP-B15 = assay: as above; format: cell-based; details: SUP-B15 cells
Experimental: as §1

[2] = Caco-2 cell monolayer transmembrane transport (unidirectional and bidirectional); details: human, Caco-2
Experimental: as §2, §3

[3] = Absolute bioavailability, intravenous vs intragastric administration; format: in vivo; details: male SD rat, intragastric vs tail intravenous injection
Experimental: Animal: male SD rat Groups of the experiment: intravenous injection group and oral administration group, four rats being provided for each rat Administration manner: tail intravenous injection, intragastric administration Data processing: an area under a curve is calculated for intravenous injection and oral administration by using a trapezoidal method, and a bioavailability is calculated by using the following formula: […]

Caco-2 cell monolayer [4] = test system: Caco-2 cell monolayer
Experimental: as §2, §3

Molecule: Cc1nc(Nc2ncc(C(=O)Nc3c(C)cccc3Cl)s2)cc(N2CCN(CCOCCOCCOCCOCCOCCN3CCN(c4cc(Nc5ncc(C(=O)Nc6c(C)cccc6Cl)s5)nc(C)n4)CC3)CC2)n1 [DSTN-42, Double End-substituted Tetraethylene Glycol-dasatinib]
Papp (*10^−6)A→B (Caco-2 cell monolayer [1]): 4.57 ± 0.87 *10^−6 cm/s
Papp (*10^−6)B→A (Caco-2 cell monolayer [1]): 11.43 ± 0.72 *10^−6 cm/s
Papp (B→A)/Papp (A→B) (Caco-2 cell monolayer [1]): 2.50
Maximum inhibition rate (PC-3): 30.97%
IC50 (K562): 0.5 nM
Maximum inhibition rate (K562): 80.34%
IC50 (KU812): 0.79 nM
Maximum inhibition rate (KU812): 96.91%
IC50 (SUP-B15): 50 nM
Maximum inhibition rate (SUP-B15): 93.36%

Molecule: Cc1nc(Nc2ncc(C(=O)Nc3c(C)cccc3Cl)s2)cc(N2CCN(CCOCCOCCOCCOCCOCCOCCOCCN3CCN(c4cc(Nc5ncc(C(=O)Nc6c(C)cccc6Cl)s5)nc(C)n4)CC3)CC2)n1 [DSTN-62, Double Endhexaethylene Glycol-dasatinib]
Papp (*10^−6)A→B (Caco-2 cell monolayer [1]): 6.44 ± 0.11 *10^−6 cm/s
Papp (*10^−6)B→A (Caco-2 cell monolayer [1]): 15.01 ± 0.59 *10^−6 cm/s
Papp (B→A)/Papp (A→B) (Caco-2 cell monolayer [1]): 2.33
Maximum inhibition rate (PC-3): 29.74%
IC50 (K562): 0.34 nM
Maximum inhibition rate (K562): 81.76%
IC50 (KU812): 0.49 nM
Maximum inhibition rate (KU812): 96.00%
IC50 (SUP-B15): 60 nM
Maximum inhibition rate (SUP-B15): 81.47%

Molecule: CCN[C@H]1C[C@H](C)S(=O)(=O)c2sc(S(=O)(=O)NCCOCCOCCOCCOCCOCCOCCOCCOCCOCCOCCOCCNS(=O)(=O)c3cc4c(s3)S(=O)(=O)[C@@H](C)C[C@@H]4NCC)cc21 [DZA-03, Double End Substituted Odecylethyleneglycol-dorzolamide]
Papp (*10^−6)A→B (Caco-2 cell monolayer [1]): 8.96 ± 0.35 *10^−6 cm/s
Papp (*10^−6)B→A (Caco-2 cell monolayer [1]): 23.67 ± 0.45 *10^−6 cm/s
Papp (B→A)/Papp (A→B) (Caco-2 cell monolayer [1]): 2.64

Molecule: CCN[C@H]1C[C@H](C)S(=O)(=O)c2sc(S(=O)(=O)NCCOCC(COCCNS(=O)(=O)c3cc4c(s3)S(=O)(=O)[C@@H](C)C[C@@H]4NCC)(COCCNS(=O)(=O)c3cc4c(s3)S(=O)(=O)[C@@H](C)C[C@@H]4NCC)COCCNS(=O)(=O)c3cc4c(s3)S(=O)(=O)[C@@H](C)C[C@@H]4C)cc21 [DZA-06, Four-Branch Ethyleneglycol-dorzolamide Conjugate]
Papp A→B at 90 min [2]: 8.86 ± 0.51 ×10⁻⁶ cm/s
Papp B→A at 90 min [2]: 18.1 ± 0.32 ×10⁻⁶ cm/s
efflux ratio at 90 min [2]: 2.05

Molecule: Double End Substituted Hexaethyleneglycol-dorzolamide [DZA-02]
Papp (*10^−6)A→B (Caco-2 cell monolayer [1]): 12.32 ± 0.34 *10^−6 cm/s
Papp (*10^−6)B→A (Caco-2 cell monolayer [1]): 25.50 ± 1.21 *10^−6 cm/s
Papp (B→A)/Papp (A→B) (Caco-2 cell monolayer [1]): 2.07

Molecule: Single End Substituted Pentaethyleneglycol-dorzolamide [DZA-01]
Papp (*10^−6)A→B (Caco-2 cell monolayer [1]): 11.54 ± 0.36 *10^−6 cm/s
Papp (*10^−6)B→A (Caco-2 cell monolayer [1]): 15.50 ± 0.06 *10^−6 cm/s
Papp (B→A)/Papp (A→B) (Caco-2 cell monolayer [1]): 1.34

More lines, now with the values ahead:

bioavailability ([3]; blood, oral): 17%
Papp A→B at 90 min [2]: 10.6 ± 0.36 ×10⁻⁶ cm/s
Papp B→A at 90 min [2]: 15.5 ± 0.06 ×10⁻⁶ cm/s
efflux ratio at 90 min [2]: 1.47
Molecule: CN(C)CCc1c[nH]c2ccc(CS(=O)(=O)N(C)CCOCCOCCOCCOCCOCCN(C)S(=O)(=O)Cc3ccc4[nH]cc(CCN(C)C)c4c3)cc12 [SMQT-01, Double End-substituted Hexaethyleneglycol-sumatriptan]

Papp (*10^−6)A→B (Caco-2 cell monolayer [4]): 9.87 ± 0.03 *10^−6 cm/s
Papp (*10^−6)B→A (Caco-2 cell monolayer [4]): 14.52 ± 0.12 *10^−6 cm/s
absolute bioavailability [3]: 23%
Molecule: CN(C)CCc1c[nH]c2ccc(CS(=O)(=O)N(C)CCOCCOCCOCCOCCN(C)S(=O)(=O)Cc3ccc4[nH]cc(CCN(C)C)c4c3)cc12 [SMQT-02, Double End-substituted Pentaethyleneglycol-sumatriptan]

Papp (*10^−6)A→B (Caco-2 cell monolayer [4]): 6.25 ± 0.51 *10^−6 cm/s
Papp (*10^−6)B→A (Caco-2 cell monolayer [4]): 11.06 ± 0.21 *10^−6 cm/s
absolute bioavailability [3]: 25%
Molecule: CN(C)CCc1c[nH]c2ccc(CS(=O)(=O)N(C)CCOCCOCCN(C)S(=O)(=O)Cc3ccc4[nH]cc(CCN(C)C)c4c3)cc12 [SMQT-03, Double End-substituted Triethylene Glycol-sumatriptan]
